Measurements published in patent publication US10925858B2, “S-nitrosoglutathione (GSNO) and GSNO reductase inhibitors for use in therapy” (MUSC FOUNDATION FOR RESEARCH DEVELOPMENT, priority 2017, dated 2021).

Key:
[1] = test system: tight junction proteins (ZO-1, Occludin, Claudin-5); assay: Immunofluorescence of tight junction proteins in isolated microvessels of diabetic mice; format: in vivo
Procedure: Male laca mice weighing between 28-32 g were procured from the Central Animal House, Panjab University, Chandigarh. The animals were acclimatized and were fed with standard pellet diet and water ad libitum. The experimental protocols were approved by the Institutional Ethics Committee and were conducted according to Indian National Science Academy (INSA) guidelines for the use and care of experimental animals. The animals were divided into four groups: (i) Control animals received phosphate buffered saline (PBS) throughout the study; (ii) Control+GSNO animals were administered with GSNO 100 μg/kg body weight orally, dissolved in PBS after every 24 h for 8 weeks; (iii) Diabetic animals were injected with STZ at a dose of 40 mg/kg body weight intraperitoneally for 5 days dissolved in 0.1 mol/L citrate buffer, pH 4.5 and Diabetic+GSNO mice were administered GSNO 100 μg/kg body weight orally dissolved in PBS after every 24 h for 8 weeks after the induction of diabetes. Animals were assessed weekly for development of diabetic encephalopathy in terms of memory deficits. All experimental procedures were done on mice at the end of study.
The microvessels were isolated by the method described by Brooks et al., (2005). Brain tissue was homogenized in microisolation buffer (103 mM NaCl, 4.7 mM KCl, 2.5 mM CaCb, 1.2 mM KH2PO4, 1.2 mM MgSO4, 15 mM HEPES, 2.5 mM NaHCO3, 10 mM D-glucose, 1 mM sodium pyruvate and 10 g/L dextran (64,000 mol wt), pH 7.4) and equal amount of 26% (w/v) dextran was added. The sample was then centrifuged at 5600 g for 10 min and pellets obtained were resuspended in microisolation buffer. Then the suspension was filtered through 70 μm filter (BD Biosciences, Gurgaon, India). […]
Isolated microvessels were resuspended in PBS and allowed to attach to polylysine-coated slides for 30 min at 37° C. and fixed at 95° C. for 10 min. […] After placement and sealing of coverslips, photographs were taken with 40× objective on a Nikon TE-300 fluorescence microscope with a fluorescein filter (Schulze & Firth 1993).

[2] = test system: cell adhesion molecules (ICAM-1 and VCAM-1); assay: Real-time PCR, mRNA expression of cell adhesion molecules in diabetic mice; format: in vivo; details: cortex and hippocampus, GSNO supplemented diabetic animals
Procedure: Male laca mice weighing between 28-32 g were procured from the Central Animal House, Panjab University, Chandigarh. The animals were acclimatized and were fed with standard pellet diet and water ad libitum. The experimental protocols were approved by the Institutional Ethics Committee and were conducted according to Indian National Science Academy (INSA) guidelines for the use and care of experimental animals. […] Animals were assessed weekly for development of diabetic encephalopathy in terms of memory deficits. […]
PCR Total RNA was extracted from microvessels obtained from brain tissue using TriReagent®. […] The concentration of RNA obtained was determined by 260/280 nm ratio using a Nanodrop™ Spectrophotometer (Nanodrop™ 1000, Thermo Scientific®, Waltham, USA). The integrity and overall quality of RNA was evaluated using agarose gel electrophoresis. […] The data obtained was analyzed by the LightCycler 480 Software, Version 1.5. […] Glyceraldehyde-3-phosphate dehydrogenase was used as the reference gene and the relative gene expression was determined using delta-delta Ct method as described by Pfaffl et al., (2002).

[3] = microvessels of GSNO supplemented diabetic animals vs untreated diabetic group

N[C@@H](CCC(=O)N[C@@H](CSN=O)C(=O)NCC(=O)O)C(=O)O [GSNO, S-nitrosoglutathione]
claudin-5 fluorescent intensity ([1]; GSNO treated diabetic animals): No change | fluorescent intensity for ZO-1 [1, 3]: increased fluorescent intensity | fluorescent intensity for occludin [1, 3]: increased fluorescent intensity | mRNA expression of ICAM-1 [2]: comparable to control levels
